The numbers were not newly measured in US5707620A (priority 1995, dated 1998), which cites them from elsewhere.

The data set deals with hemagglutinins. Particulars: cited from earlier work.

Molecules are shown by their SMILES.

In the case of `N=C(N)NCCC[C@H](N)C(=O)O` [arginine], the “inhibition of activity of hemagglutinins” value is “inhibited by arginine”.
Take `NCCCC[C@H](N)C(=O)O` [lysine]: the “inhibition of activity of hemagglutinins” value is recorded as “to a lesser extent, lysine”.
